{"source": "patent US20230053540A1", "about": "“TREATMENT OF LIVER INJURY” (Massachusetts Institute of Technology, priority 2019, published 2023)", "tested_on": "hepatocytes", "assay": "Seq-Well scRNA-Seq of hepatocytes after APAP overdose (signature scores, DEG vs untreated)", "format": "in vivo, mouse"}
{"smiles": "CC(=O)Nc1ccc(O)cc1", "note": "[APAP, acetaminophen]", "values": [{"measurement": "Slc25a10 avg_logFC", "setting": "A96 vs untreated (UT)", "value": 0.2508}, {"measurement": "Slc25a10 pct.1", "setting": "A96 vs untreated (UT)", "value": 0.701}, {"measurement": "Slc25a13 avg_logFC", "setting": "A96 vs untreated (UT)", "value": 0.2573}, {"measurement": "Slc25a13 pct.1", "setting": "A96 vs untreated (UT)", "value": 0.786}, {"measurement": "Slc25a20 avg_logFC", "setting": "A96 vs untreated (UT)", "value": 0.3215}, {"measurement": "Slc25a20 pct.1", "setting": "A96 vs untreated (UT)", "value": 0.671}, {"measurement": "Slc25a47 avg_logFC", "setting": "A96 vs untreated (UT)", "value": 0.2777}, {"measurement": "Slc25a47 pct.1", "setting": "A96 vs untreated (UT)", "value": 0.96}, {"measurement": "Slc27a2 avg_logFC", "setting": "A96 vs untreated (UT)", "value": 0.3931}, {"measurement": "Slc27a2 pct.1", "setting": "A96 vs untreated (UT)", "value": 0.988}, {"measurement": "Slc27a5 avg_logFC", "setting": "A96 vs untreated (UT)", "value": 0.2567}, {"measurement": "Slc27a5 pct.1", "setting": "A96 vs untreated (UT)", "value": 0.958}, {"measurement": "Slc40a1 avg_logFC", "setting": "A96 vs untreated (UT)", "value": 0.336}, {"measurement": "Slc40a1 pct.1", "setting": "A96 vs untreated (UT)", "value": 0.551}, {"measurement": "Slco1a4 avg_logFC", "setting": "A96 vs untreated (UT)", "value": 0.4652}, {"measurement": "Slco1a4 pct.1", "setting": "A96 vs untreated (UT)", "value": 0.507}, {"measurement": "Snord13 avg_logFC", "setting": "A96 vs untreated (UT)", "value": 0.2659}, {"measurement": "Snord13 pct.1", "setting": "A96 vs untreated (UT)", "value": 0.386}, {"measurement": "Snord118 avg_logFC", "setting": "A96 vs untreated (UT)", "value": 0.5783}, {"measurement": "Snord118 pct.1", "setting": "A96 vs untreated (UT)", "value": 0.564}, {"measurement": "St3gal5 avg_logFC", "setting": "A96 vs untreated (UT)", "value": 0.3862}, {"measurement": "St3gal5 pct.1", "setting": "A96 vs untreated (UT)", "value": 0.71}, {"measurement": "Sult1a1 avg_logFC", "setting": "A96 vs untreated (UT)", "value": 0.522}, {"measurement": "Sult1a1 pct.1", "setting": "A96 vs untreated (UT)", "value": 0.881}, {"measurement": "Sult1d1 avg_logFC", "setting": "A96 vs untreated (UT)", "value": 0.4421}, {"measurement": "Sult1d1 pct.1", "setting": "A96 vs untreated (UT)", "value": 0.855}, {"measurement": "Tat avg_logFC", "setting": "A96 vs untreated (UT)", "value": 0.2529}, {"measurement": "Tat pct.1", "setting": "A96 vs untreated (UT)", "value": 0.981}, {"measurement": "Tgoln1 avg_logFC", "setting": "A96 vs untreated (UT)", "value": 0.3801}, {"measurement": "Tgoln1 pct.1", "setting": "A96 vs untreated (UT)", "value": 0.756}, {"measurement": "Tmbim6 avg_logFC", "setting": "A96 vs untreated (UT)", "value": 0.2624}, {"measurement": "Tmbim6 pct.1", "setting": "A96 vs untreated (UT)", "value": 0.988}, {"measurement": "Tmed5 avg_logFC", "setting": "A96 vs untreated (UT)", "value": 0.3754}, {"measurement": "Tmed5 pct.1", "setting": "A96 vs untreated (UT)", "value": 0.714}, {"measurement": "Tmem106b avg_logFC", "setting": "A96 vs untreated (UT)", "value": 0.3285}, {"measurement": "Tmem106b pct.1", "setting": "A96 vs untreated (UT)", "value": 0.727}, {"measurement": "Tob1 avg_logFC", "setting": "A96 vs untreated (UT)", "value": 0.3731}, {"measurement": "Tob1 pct.1", "setting": "A96 vs untreated (UT)", "value": 0.649}, {"measurement": "Trp53inp1 avg_logFC", "setting": "A96 vs untreated (UT)", "value": 0.3647}, {"measurement": "Trp53inp1 pct.1", "setting": "A96 vs untreated (UT)", "value": 0.551}, {"measurement": "Tsc22d3 avg_logFC", "setting": "A96 vs untreated (UT)", "value": 0.3425}, {"measurement": "Tsc22d3 pct.1", "setting": "A96 vs untreated (UT)", "value": 0.534}, {"measurement": "Ttpa avg_logFC", "setting": "A96 vs untreated (UT)", "value": 0.6266}, {"measurement": "Ttpa pct.1", "setting": "A96 vs untreated (UT)", "value": 0.98}, {"measurement": "Ttr avg_logFC", "setting": "A96 vs untreated (UT)", "value": 0.3459}, {"measurement": "Ttr pct.1", "setting": "A96 vs untreated (UT)", "value": 1}, {"measurement": "Ubc avg_logFC", "setting": "A96 vs untreated (UT)", "value": 0.3578}, {"measurement": "Ubc pct.1", "setting": "A96 vs untreated (UT)", "value": 0.968}, {"measurement": "Ubr3 avg_logFC", "setting": "A96 vs untreated (UT)", "value": 0.2529}, {"measurement": "Ubr3 pct.1", "setting": "A96 vs untreated (UT)", "value": 0.585}, {"measurement": "Uhrf1bp1l avg_logFC", "setting": "A96 vs untreated (UT)", "value": 0.2559}, {"measurement": "Uhrf1bp1l pct.1", "setting": "A96 vs untreated (UT)", "value": 0.415}, {"measurement": "Upp2 avg_logFC", "setting": "A96 vs untreated (UT)", "value": "−0.2859"}, {"measurement": "Upp2 pct.1", "setting": "A96 vs untreated (UT)", "value": 0.545}, {"measurement": "Uroc1 avg_logFC", "setting": "A96 vs untreated (UT)", "value": 0.3074}, {"measurement": "Uroc1 pct.1", "setting": "A96 vs untreated (UT)", "value": 0.726}, {"measurement": "Wbp1l avg_logFC", "setting": "A96 vs untreated (UT)", "value": 0.3456}, {"measurement": "Wbp1l pct.1", "setting": "A96 vs untreated (UT)", "value": 0.789}, {"measurement": "Zfp36l1 avg_logFC", "setting": "A96 vs untreated (UT)", "value": 0.3298}, {"measurement": "Zfp36l1 pct.1", "setting": "A96 vs untreated (UT)", "value": 0.601}, {"measurement": "Zfp91 avg_logFC", "setting": "A96 vs untreated (UT)", "value": 0.3741}, {"measurement": "Zfp91 pct.1", "setting": "A96 vs untreated (UT)", "value": 0.693}, {"measurement": "Zfp683 avg_logFC", "setting": "A96 vs untreated (UT)", "value": 0.3027}, {"measurement": "Zfp683 pct.1", "setting": "A96 vs untreated (UT)", "value": 0.476}, {"measurement": "mt-Co1 avg_logFC", "setting": "A96 vs untreated (UT)", "value": "−0.8459"}, {"measurement": "mt-Co1 pct.1", "setting": "A96 vs untreated (UT)", "value": 0.983}, {"measurement": "mt-Co2 avg_logFC", "setting": "A96 vs untreated (UT)", "value": "−1.033"}, {"measurement": "mt-Co2 pct.1", "setting": "A96 vs untreated (UT)", "value": 0.313}, {"measurement": "mt-Co3 avg_logFC", "setting": "A96 vs untreated (UT)", "value": "−1.046"}, {"measurement": "mt-Co3 pct.1", "setting": "A96 vs untreated (UT)", "value": 0.213}, {"measurement": "mt-Cytb avg_logFC", "setting": "A96 vs untreated (UT)", "value": "−0.7105"}, {"measurement": "mt-Cytb pct.1", "setting": "A96 vs untreated (UT)", "value": 0.99}, {"measurement": "mt-Nd1 avg_logFC", "setting": "A96 vs untreated (UT)", "value": "−0.5843"}, {"measurement": "mt-Nd1 pct.1", "setting": "A96 vs untreated (UT)", "value": 0.996}, {"measurement": "mt-Nd2 avg_logFC", "setting": "A96 vs untreated (UT)", "value": "−0.7197"}, {"measurement": "mt-Nd2 pct.1", "setting": "A96 vs untreated (UT)", "value": 0.994}, {"measurement": "mt-Nd4 avg_logFC", "setting": "A96 vs untreated (UT)", "value": "−0.8488"}, {"measurement": "mt-Nd4 pct.1", "setting": "A96 vs untreated (UT)", "value": 0.986}, {"measurement": "mt-Nd5 avg_logFC", "setting": "A96 vs untreated (UT)", "value": "−0.573"}, {"measurement": "mt-Nd5 pct.1", "setting": "A96 vs untreated (UT)", "value": 0.964}, {"measurement": "mt-Rnr1 avg_logFC", "setting": "A96 vs untreated (UT)", "value": "−0.3398"}, {"measurement": "mt-Rnr1 pct.1", "setting": "A96 vs untreated (UT)", "value": 1}, {"measurement": "mt-Rnr2 avg_logFC", "setting": "A96 vs untreated (UT)", "value": "−0.3332"}, {"measurement": "mt-Rnr2 pct.1", "setting": "A96 vs untreated (UT)", "value": 1}, {"measurement": "mt-Tp avg_logFC", "setting": "A96 vs untreated (UT)", "value": 0.3085}, {"measurement": "mt-Tp pct.1", "setting": "A96 vs untreated (UT)", "value": 0.329}, {"measurement": "Acaa1b avg_logFC", "setting": "APAP composite vs UT", "value": "−0.8508"}, {"measurement": "Agt avg_logFC", "setting": "APAP composite vs UT", "value": 0.5205}, {"measurement": "Ahsg avg_logFC", "setting": "APAP composite vs UT", "value": 0.2925}, {"measurement": "Akr1c6 avg_logFC", "setting": "APAP composite vs UT", "value": "−1.586"}, {"measurement": "Ang avg_logFC", "setting": "APAP composite vs UT", "value": 0.7089}, {"measurement": "Angptl3 avg_logFC", "setting": "APAP composite vs UT", "value": 0.7089}, {"measurement": "Apoa2 avg_logFC", "setting": "APAP composite vs UT", "value": "−0.5455"}, {"measurement": "Apoc1 avg_logFC", "setting": "APAP composite vs UT", "value": "−0.8713"}, {"measurement": "Apoc2 avg_logFC", "setting": "APAP composite vs UT", "value": 0.7821}, {"measurement": "Apoe avg_logFC", "setting": "APAP composite vs UT", "value": "−0.4213"}, {"measurement": "Apoh avg_logFC", "setting": "APAP composite vs UT", "value": 0.4118}, {"measurement": "Cdo1 avg_logFC", "setting": "APAP composite vs UT", "value": 0.517}, {"measurement": "Ces1c avg_logFC", "setting": "APAP composite vs UT", "value": 0.4668}, {"measurement": "Chchd1 avg_logFC", "setting": "APAP composite vs UT", "value": 0.7207}, {"measurement": "Chchd10 avg_logFC", "setting": "APAP composite vs UT", "value": 0.7207}]}
